The record followed here is ChEMBL document CHEMBL1201862, “PubChem BioAssay data set” (2004).

Activity calls are given as the source filed them.

Assay [1] has as its target NAD-dependent protein deacylase sirtuin-5, mitochondrial (Homo sapiens, UniProt Q9NXA8). Description: sirtuin-5 deacylation blockers, concentration series – biochemical, fluorescence imaging, cherry-pick, set 5, dose response (AID 720591).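 Note: desuccinylation of succinyl peptide AMC substrate read as fluorescence after trypsin release; potency of inhibitors that lower fluorescence and may act on trypsin instead.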
Assay [2] has as its target T1, Tyrosine-protein phosphatase non-receptor type 7 (Homo sapiens, UniProt P35236).
T1 sequence (P35236 whole entry): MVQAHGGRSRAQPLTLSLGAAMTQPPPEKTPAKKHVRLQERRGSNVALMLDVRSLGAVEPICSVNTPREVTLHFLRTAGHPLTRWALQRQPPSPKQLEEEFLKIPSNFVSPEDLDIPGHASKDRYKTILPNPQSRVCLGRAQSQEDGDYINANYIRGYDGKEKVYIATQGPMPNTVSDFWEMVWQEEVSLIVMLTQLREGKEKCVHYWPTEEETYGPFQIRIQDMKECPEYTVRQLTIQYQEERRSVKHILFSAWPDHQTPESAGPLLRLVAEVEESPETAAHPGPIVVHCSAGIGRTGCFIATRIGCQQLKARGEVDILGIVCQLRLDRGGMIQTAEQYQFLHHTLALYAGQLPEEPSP
Description: HePTP tyrosine phosphatase activity blockers – biochemical, absorbance, leukemia target, primary screen (AID 521). It counts as functional.

Assay [3] can be described thus: growth inhibition of yeast DHODH-expressing 3D7 parasites – SYBR Green, dry powder samples, dose response (AID 1159570).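 Note: parasite growth measured after 72 hours of compound exposure.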 It counts as functional, cell-based.
Assay [4] can be described thus: growth inhibition of PfATP4-mutant resistant parasites – NITD609-resistant line, SYBR Green, dry powder, dose response (AID 1159571).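 Note: parasites synchronized at ring stage by sorbitol before testing.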 It counts as functional, cell-based.
The nature of assay [5]: P. falciparum Dd2 growth inhibitors, dose response, SYBR Green, cherry-picked samples (AID 1159567). Format: functional, cell-based.
Assay [6] in a line: toxicity to human HepG2 hepatoma cells – cell-based, plate reader, dry powder samples, cytotoxicity control, dose response (AID 1159569).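 Note: inhibitor potency with signal falling toward the positive control level.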 It counts as functional.
Assay [7] is described as follows: Dd2 malaria parasite growth inhibition potency – SYBR Green, dry powder samples, dose response (AID 1159566).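 Note: potency for growth inhibition with lower SYBR green DNA signal.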 Format: functional, cell-based.
Assay [8] addresses Voltage-gated inwardly rectifying potassium channel KCNH2 (Homo sapiens, UniProt Q12809). Description: concentration-dependent hERG rescue from blockers – cell-based, thallium flux, dose response (AID 2121). It counts as ADME. A general note: Block of hERG is tested as a sign of cardiac risk.
A short description of assay [9]: glucagon-like peptide-1 release potency in STC-1, concentration-response, half-maximal inhibitory concentration in the STC-1 line (AID 1117345). Format: functional, cell-based.
The nature of assay [10]: Potency on glucagon-like peptide 1 release, dose-response in NCI-H716 cell line, half maximal inhibitory concentration (AID 1117344). Format: functional, cell-based.
The next assay addresses Paired box protein Pax-8 (Homo sapiens, UniProt Q06710). Description: PAX8 transcriptional activity inhibition in RMG-I – RMG-I cells, luciferase, cherry-pick, dose response (AID 687027).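 Note: luciferase reporter driven by Pax8 target thyroperoxidase promoter measured by SteadyGlo luminescence.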 It counts as functional, cell-based.
Assay [11] in a line: blockers of HIV-1 envelope-mediated cell-cell fusion – cherry-pick, dose response (AID 652057). It counts as functional, cell-based.
A short description of assay [12]: IGROV1 cell killing – plate reader, dry powder samples, PAX8 inhibitor project, dose response (AID 743043). Format: functional, cell-based. The settings on record: IGROV-1.
A short description of assay [13]: toxicity toward immortalized ovarian surface epithelium – cell-based, plate reader, dry powder samples, cytotoxicity control for PAX8 inhibitor project, dose response (AID 743045). Format: functional.
The nature of assay [14]: OVCAR8 cell viability loss – plate reader, dry powder samples, PAX8 project, dose response (AID 743197). It counts as functional, cell-based. The note with it: OVCAR-8.
The nature of assay [15]: viability loss in CEM21 cells – cell-based, CellTiter-Glo luminescence, cherry-picked, cytotoxicity control for viral fusion inhibitor project, dose response (AID 652042).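 Note: potency for signal decrease meaning cytotoxicity.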 Format: functional. (ATP-based viability assays read luminescence as a measure of living cells.)
Assay [16] in a line: OVCAR-3 cell viability loss – plate reader, dry powder samples, PAX8 inhibitor project, dose response (AID 743044). Format: functional, cell-based.
Assay [17] can be described thus: blockers of HIV-1 ZM109 envelope-driven cell-cell fusion – HeLa effector, CEM target cells, luciferase, cherry-pick, dose response (AID 652058).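 Note: luciferase signal from HIV-1 Env mediated cell-cell fusion of effector and target cells.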 It counts as functional, cell-based.
Assay [18] is described as follows: HIV-1 AD8 envelope cell-cell fusion blockers – cherry-pick, dose response (AID 652062).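 Note: luciferase signal from cell-cell fusion driven by HIV-1 clade B AD8 Env; potency is for inhibitors of fusion seen as a drop in luminescence.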 Format: functional, cell-based.
Assay [19] can be described thus: A2780 cell killing – plate reader, dry powder samples, cytotoxicity control, dose response (AID 743046). It counts as functional, cell-based.
The nature of assay [20]: general cell-killing toxicity readout – plate reader, dry powder samples, cytotoxicity control for PAX8 inhibitor project, dose response (AID 743021). Format: functional, cell-based.
For assay [21], the target named is Heat shock protein HSP 90-alpha (Homo sapiens, UniProt P07900). Description: Luminescence-based dose response biochemical high throughput screening assay for inhibitors of the Heat Shock Protein 90 (HSP90). [Related pubchem assays: 1831 (Summary AID.), 1846 (Confirmation screen.), 1789 (Primary screen.)].
The nature of assay [22]: reduced cellular PGC1a acetyl-lysine signal – cell-based, cherry-picked samples, dose response (AID 720514).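 Note: potency may reflect raised or lowered acetylation signal.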 Format: functional.

Chain of NAD-dependent protein deacylase sirtuin-5, mitochondrial (Q9NXA8 whole entry): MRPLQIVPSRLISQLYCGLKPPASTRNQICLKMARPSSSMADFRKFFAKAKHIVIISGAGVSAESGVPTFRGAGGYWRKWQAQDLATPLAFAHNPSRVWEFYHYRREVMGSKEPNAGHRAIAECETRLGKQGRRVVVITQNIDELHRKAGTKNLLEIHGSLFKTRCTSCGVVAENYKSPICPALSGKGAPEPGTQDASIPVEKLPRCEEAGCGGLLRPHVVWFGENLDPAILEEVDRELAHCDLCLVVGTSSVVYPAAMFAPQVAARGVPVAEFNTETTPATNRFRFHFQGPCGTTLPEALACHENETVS
Chain of Paired box protein Pax-8 (Q06710 whole entry, the tested form may be a part): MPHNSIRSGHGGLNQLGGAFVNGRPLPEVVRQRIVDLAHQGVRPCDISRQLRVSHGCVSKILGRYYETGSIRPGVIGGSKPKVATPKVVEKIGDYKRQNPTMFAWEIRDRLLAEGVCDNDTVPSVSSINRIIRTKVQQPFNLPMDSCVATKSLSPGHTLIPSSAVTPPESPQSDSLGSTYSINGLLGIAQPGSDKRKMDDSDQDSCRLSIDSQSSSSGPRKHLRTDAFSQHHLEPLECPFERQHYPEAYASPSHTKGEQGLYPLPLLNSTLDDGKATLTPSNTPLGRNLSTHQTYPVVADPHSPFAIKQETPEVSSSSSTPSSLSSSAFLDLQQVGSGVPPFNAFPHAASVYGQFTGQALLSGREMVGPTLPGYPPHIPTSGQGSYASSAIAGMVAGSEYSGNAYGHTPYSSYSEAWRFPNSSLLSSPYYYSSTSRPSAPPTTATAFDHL
Chain of Voltage-gated inwardly rectifying potassium channel KCNH2 (Q12809 whole entry): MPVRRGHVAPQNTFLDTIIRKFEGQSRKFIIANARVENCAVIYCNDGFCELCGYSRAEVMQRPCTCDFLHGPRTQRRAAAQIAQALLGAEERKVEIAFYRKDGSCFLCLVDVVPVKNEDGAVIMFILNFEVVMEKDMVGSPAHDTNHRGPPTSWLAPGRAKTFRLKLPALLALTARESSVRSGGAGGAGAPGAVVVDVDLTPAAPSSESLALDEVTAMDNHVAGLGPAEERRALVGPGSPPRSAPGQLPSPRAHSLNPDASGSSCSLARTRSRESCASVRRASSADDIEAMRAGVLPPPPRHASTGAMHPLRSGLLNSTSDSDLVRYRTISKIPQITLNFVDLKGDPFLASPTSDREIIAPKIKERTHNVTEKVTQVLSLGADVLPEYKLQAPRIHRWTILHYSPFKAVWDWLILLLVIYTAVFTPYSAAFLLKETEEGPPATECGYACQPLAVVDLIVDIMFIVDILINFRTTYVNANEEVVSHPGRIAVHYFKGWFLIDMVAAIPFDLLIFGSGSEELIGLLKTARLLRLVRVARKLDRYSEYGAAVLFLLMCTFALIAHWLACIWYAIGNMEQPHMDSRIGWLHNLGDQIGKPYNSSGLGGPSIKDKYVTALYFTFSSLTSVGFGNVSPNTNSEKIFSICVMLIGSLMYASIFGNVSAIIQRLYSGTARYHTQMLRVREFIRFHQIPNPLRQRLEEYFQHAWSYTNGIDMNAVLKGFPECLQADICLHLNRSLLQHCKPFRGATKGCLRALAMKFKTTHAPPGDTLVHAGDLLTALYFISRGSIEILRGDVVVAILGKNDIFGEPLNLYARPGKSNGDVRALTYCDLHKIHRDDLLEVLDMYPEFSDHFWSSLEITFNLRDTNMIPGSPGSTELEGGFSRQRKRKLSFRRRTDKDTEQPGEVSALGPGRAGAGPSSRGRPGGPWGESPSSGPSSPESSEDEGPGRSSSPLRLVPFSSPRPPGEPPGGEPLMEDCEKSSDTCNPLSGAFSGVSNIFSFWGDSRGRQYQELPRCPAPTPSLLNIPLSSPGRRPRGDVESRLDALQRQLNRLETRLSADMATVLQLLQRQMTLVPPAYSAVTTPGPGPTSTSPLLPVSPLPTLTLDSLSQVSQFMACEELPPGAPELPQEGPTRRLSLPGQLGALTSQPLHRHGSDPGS

With `O=S(=O)(c1ccc(NC2=NN=C(c3cc(F)ccc3F)CS2)cc1)N1CCOCC1`, the AC50 (as a rule, the midpoint of the concentration-response curve, whichever way the signal moves) in assay [1] is > 30 µM (inactive).
Take `CCN(Cc1nc(-c2ccccc2)no1)C(=O)c1ccco1`: in assay [1], the AC50 is > 30 µM (inactive).
As to `N=c1c2c3c(sc2ncn1CCN1CCOCC1)CCCC3`, in assay [2], the 50% inhibitory concentration (IC50) (in general, the midpoint of a concentration-inhibition curve) is > 100 µM (not active).
With `C[C@H](CO)N1C[C@H](C)[C@@H](CN(C)Cc2ccc(-c3ccccc3)cc2)OCc2ccccc2-c2c(n(C)c3ccccc23)C1=O`, the AC50 is 2.06 µM (active) in [3]; 1.46 µM (active) in [4]; 2.35 µM (active) in [5]; 19.1 µM (active) in assay [6]; 0.865 µM (active) in assay [7].
Turning to `Cc1ccc(C(=O)CC(=O)c2cccc(F)c2)c(O)c1`, in assay [8], the concentration giving a half-maximal response (EC50) – broadly, the concentration at which the effect is half-maximal – was 3.76 µM (active).
`CC1=C(C(=O)O)N2C(=O)[C@@H](NC(=O)[C@H](N)c3ccccc3)[C@H]2SC1` [CEPHALEXIN ANHYDROUS]: the IC50 in assay [9] and in assay [10] was > 40 µM (inactive) in each case.
Regarding `C[C@@H]1CN([C@@H](C)CO)C(=O)Cc2cc(NS(=O)(=O)c3ccccc3)ccc2O[C@H]1CN(C)Cc1ccc(Cl)c(Cl)c1`, the concentration at half-maximal activity (AC50) was 2.42 µM (active) on Paired box protein Pax-8; 8.55 µM (active) in assay [11]; 5.66 µM (active) in assay [12]; 10.8 µM (active) in assay [13]; 11.5 µM (active) in [14]; 20.3 µM (active) in assay [15]. The AC50 in assay [16] is 11 µM (active); in assay [17] it was 0.289 µM (active); in [18], 1.19 µM (active); in assay [19], 24.9 µM (active); in assay [20], 3.32 µM (active).
Regarding `Cc1ccc(OCc2ccc(C(=O)O)o2)cc1C`, in assay [21], the IC50 is 1.75 µM (active).
As to `COc1cccc(-c2ccc([C@@H]3[C@@H]4CN(C(=O)C5CC5)C[C@H]3N4)cc2)c1`, the AC50 in assay [3] was 0.85 µM (active); at Paired box protein Pax-8, 3.06 µM (active); in assay [4], 1.03 µM (active); in [5] it was 0.949 µM (active); in [6] it was 34.3 µM (active); in assay [7], 0.634 µM (active). The AC50 in assay [14] was 39 µM (active); in assay [16], 43.6 µM (active); in assay [22] it was 24.1 µM (active).
